{"source": "patent US11654196B2", "about": "“Dosing regimens for echinocandin class compounds” (priority 2012, dated 2023)", "key": {"[1]": {"test": "Pharmacokinetics (oral bioavailability) following oral administration in beagle dogs", "assay_type": "in vivo", "parameters": "key to Improvement (ratio of % oral bioavailability to saline): NI = no improvement in oral bioavailability in comparison to saline", "settings": "for % BA / Improvement (ratio of % oral bioavailability to saline): oral", "experimental": "Echinocandin class compounds were administered to beagle dogs weighing approximately 6-10 kg. Each animal received the appropriate prepared test article in a single oral capsule dose at a target dose level of about 7-10 mg/kg. Immediately after dosing, each animal was offered 20 mL-30 mL of water orally (Groups 1-4) or 30 mL of water orally to assist in swallowing the capsule.\nAnimals were treated and blood samples were drawn and analyzed as provided in Example 1.\nThe bioavailability of each oral dose formulation was estimated by comparison to intravenous plasma concentration data in dogs from Example 1. The results provided in Table 3 show the oral bioavailability for the echinocandin class compound in saline (formulation 11), and the improvement over saline with the use of a formulation of the invention."}, "[2]": {"test": "Solubility in aqueous media of varying pH", "assay_type": "physicochemical", "settings": "for solubility: ambient temperature, compound 22 as acetate salt, salt free equivalent"}, "Stability in dog plasma": {"test": "Stability in dog plasma", "assay_type": "in vitro ADME", "settings": "dog, plasma", "experimental": "(§1) Stock solutions of compound 22 and anidulafungin were prepared in DMSO at a concentration of 1 mg/mL. Plasma samples were prepared by mixing plasma with 10% volume of 1 M sodium phosphate, pH 7.4, to minimize pH fluctuation, and stock solution to produce plasma samples containing approximately 10,000 ng/mL compound 22 or anidulafungin. For the stability experiments in PBS buffer, plasma was replaced with phosphate buffered saline, pH 7.4. The DMSO concentration was 1% in the final incubation. Multiple individual aliquots (0.5 mL each) were prepared, capped, and incubated at 37° C. At each stability time point, the reaction was stopped by removing the sample from the incubator and adding 0.5 mL of acetonitrile containing internal standard. Samples were centrifuged for approximately 5 minutes at 10000 rpm to precipitate the proteins. Stability was measured in five different matrices (i.e. rat plasma, dog plasma, monkey plasma, human plasma, and PBS). An aliquot (100 μL) of supernatant of each sample was assayed by HPLC. The percentage of anidulafungin and compound 22 remaining at each time point was calculated by dividing the peak area ratio at each time point by the peak area ratio at time zero."}, "[3]": {"test": "Stability in human plasma", "assay_type": "in vitro ADME", "settings": "human, plasma", "experimental": "as §1"}, "[4]": {"test": "Stability in monkey plasma", "assay_type": "in vitro ADME", "settings": "monkey, plasma", "experimental": "as §1"}, "[5]": {"test": "Stability in phosphate buffered saline (PBS)", "assay_type": "physicochemical", "settings": "buffer, pH 7.4", "experimental": "as §1"}, "Stability in rat plasma": {"test": "Stability in rat plasma", "assay_type": "in vitro ADME", "settings": "rat, plasma", "experimental": "as §1"}, "[6]": {"test": "Pharmacokinetics in chimpanzee, IV dose", "settings": "in vivo", "experimental": "Pharmacokinetic studies were performed in six adult female chimpanzees. Two chimpanzees received 1-mg/kg IV dose of compound 22 formulated in 5% dextrose (60-minute infusion). Two chimpanzees received 10-mg/kg oral dose of compound 22 formulated in 5% citric acid (oral bolus). Two chimpanzees received 1-mg/kg IV dose of anidulafungin formulated as package label (5% dextrose, 60-minute infusion). Plasma samples were collected from all chimps for 10 days to 22 days. PK curves are depicted in FIGS. 16A, 16B, and 18. All pharmacokinetic calculations were performed using WinNonlin version 4.1 (Pharsight Corp) by noncompartmental analysis."}, "[7]": {"test": "Circulating half-life in rat", "assay_type": "in vivo", "settings": "assays conducted by applicant"}, "[8]": {"test": "Circulating half-life in dog", "assay_type": "in vivo", "settings": "assays conducted by applicant"}, "[9]": {"test": "Circulating half-life in monkey", "assay_type": "in vivo", "settings": "assays conducted by applicant"}, "[10]": {"test": "Circulating half-life in chimpanzee", "assay_type": "in vivo", "settings": "assays conducted by applicant"}}}
{"smiles": "CC(=O)[O-].CCCCCOc1ccc(-c2ccc(-c3ccc(C(=O)NC4CC(O)C(OCC[N+](C)(C)C)NC(=O)C5C(O)C(C)CN5C(=O)C(C(C)O)NC(=O)C(C(O)C(O)c5ccc(O)cc5)NC(=O)C5CC(O)CN5C(=O)C(C(C)O)NC4=O)cc3)cc2)cc1", "note": "(centres unmarked) [Compound 22]", "values": [{"measurement": "% BA in saline", "setting": "[1]; oral about 7-10 mg/kg, formulation 11 (saline)", "result": 3.50, "unit": "%"}, {"measurement": "% BA", "setting": "[1]; formulation 1", "result": "(8.21%)"}, {"measurement": "Improvement (ratio of % oral bioavailability to saline)", "setting": "[1]; formulation 1", "result": 2.3}, {"measurement": "% BA", "setting": "[1]; formulation 3", "result": "(9.76%)"}, {"measurement": "Improvement (ratio of % oral bioavailability to saline)", "setting": "[1]; formulation 3", "result": 2.8}, {"measurement": "% BA", "setting": "[1]; formulation 5", "result": "(12.3%)"}, {"measurement": "Improvement (ratio of % oral bioavailability to saline)", "setting": "[1]; formulation 5", "result": 3.5}, {"measurement": "% BA", "setting": "[1]; formulation 7", "result": "(12.2%)"}, {"measurement": "Improvement (ratio of % oral bioavailability to saline)", "setting": "[1]; formulation 7", "result": 3.5}, {"measurement": "Improvement (ratio of % oral bioavailability to saline)", "setting": "[1]; formulation 8", "result": "NI"}, {"measurement": "Improvement (ratio of % oral bioavailability to saline)", "setting": "[1]; formulation 9", "result": "NI"}, {"measurement": "Improvement (ratio of % oral bioavailability to saline)", "setting": "[1]; formulation 10", "result": "NI"}, {"measurement": "Improvement (ratio of % oral bioavailability to saline)", "setting": "[1]; formulation 12", "result": "NI"}, {"measurement": "% BA", "setting": "[1]; formulation 13", "result": "(8.80%)"}, {"measurement": "Improvement (ratio of % oral bioavailability to saline)", "setting": "[1]; formulation 13", "result": 2.5}, {"measurement": "% BA", "setting": "[1]; formulation 14", "result": "(15.0%)"}, {"measurement": "Improvement (ratio of % oral bioavailability to saline)", "setting": "[1]; formulation 14", "result": 4.3}, {"measurement": "% BA", "setting": "[1]; formulation 15", "result": "(13.4%)"}, {"measurement": "Improvement (ratio of % oral bioavailability to saline)", "setting": "[1]; formulation 15", "result": 3.8}, {"measurement": "% BA", "setting": "[1]; formulation 16", "result": "(5.50%)"}, {"measurement": "Improvement (ratio of % oral bioavailability to saline)", "setting": "[1]; formulation 16", "result": 1.5}, {"measurement": "% BA", "setting": "[1]; formulation 17", "result": "(11.8%)"}, {"measurement": "Improvement (ratio of % oral bioavailability to saline)", "setting": "[1]; formulation 17", "result": 3.3}, {"measurement": "solubility", "setting": "[2]; 90% Water:10% glycerol", "result": ">102.3", "unit": "mg/mL"}, {"measurement": "solubility", "setting": "[2]; Acetate buffer (0.01M, pH 4.5)", "result": ">145", "unit": "mg/mL"}, {"measurement": "solubility", "setting": "[2]; Acetate buffer (0.01M, pH 5.5)", "result": ">141", "unit": "mg/mL"}, {"measurement": "solubility", "setting": "[2]; Sterile Water for injection", "result": ">142", "unit": "mg/mL"}, {"measurement": "solubility", "setting": "[2]; Tris buffer (0.01M, pH 8.5)", "result": ">138", "unit": "mg/mL"}, {"measurement": "Aqueous solubility compared with anidulafungin", "setting": "[2]; variety of aqueous mediums", "result": "dramatically greater aqueous solubility than anidulafungin"}, {"measurement": "% remaining", "setting": "Stability in dog plasma; 0 h", "result": 100, "unit": "%"}, {"measurement": "% remaining", "setting": "Stability in dog plasma; 1 h", "result": 97.9, "unit": "%"}, {"measurement": "% remaining", "setting": "Stability in dog plasma; 2 h", "result": 107, "unit": "%"}, {"measurement": "% remaining", "setting": "Stability in dog plasma; 4 h", "result": 119, "unit": "%"}, {"measurement": "% remaining", "setting": "Stability in dog plasma; 8 h", "result": 94.0, "unit": "%"}, {"measurement": "% remaining", "setting": "Stability in dog plasma; 21 h", "result": 87.3, "unit": "%"}, {"measurement": "% remaining", "setting": "Stability in dog plasma; 44 h", "result": 78.6, "unit": "%"}, {"measurement": "% remaining", "setting": "[3]; 0 h", "result": 100, "unit": "%"}, {"measurement": "% remaining", "setting": "[3]; 1 h", "result": 98.5, "unit": "%"}, {"measurement": "% remaining", "setting": "[3]; 2 h", "result": 101, "unit": "%"}, {"measurement": "% remaining", "setting": "[3]; 4 h", "result": 125, "unit": "%"}, {"measurement": "% remaining", "setting": "[3]; 8 h", "result": 97.5, "unit": "%"}, {"measurement": "% remaining", "setting": "[3]; 21 h", "result": 95.7, "unit": "%"}, {"measurement": "% remaining", "setting": "[3]; 44 h", "result": 93.3, "unit": "%"}, {"measurement": "% remaining", "setting": "[4]; 0 h", "result": 100, "unit": "%"}, {"measurement": "% remaining", "setting": "[4]; 1 h", "result": 109, "unit": "%"}, {"measurement": "% remaining", "setting": "[4]; 2 h", "result": 110, "unit": "%"}, {"measurement": "% remaining", "setting": "[4]; 4 h", "result": 143, "unit": "%"}, {"measurement": "% remaining", "setting": "[4]; 8 h", "result": 115, "unit": "%"}, {"measurement": "% remaining", "setting": "[4]; 21 h", "result": 104, "unit": "%"}, {"measurement": "% remaining", "setting": "[4]; 44 h", "result": 93.5, "unit": "%"}, {"measurement": "% remaining", "setting": "[5]; 0 h", "result": 100, "unit": "%"}, {"measurement": "% remaining", "setting": "[5]; 1 h", "result": 105, "unit": "%"}, {"measurement": "% remaining", "setting": "[5]; 2 h", "result": 103, "unit": "%"}, {"measurement": "% remaining", "setting": "[5]; 4 h", "result": 107, "unit": "%"}, {"measurement": "% remaining", "setting": "[5]; 8 h", "result": 101, "unit": "%"}, {"measurement": "% remaining", "setting": "[5]; 21 h", "result": 96.3, "unit": "%"}, {"measurement": "% remaining", "setting": "[5]; 44 h", "result": 96.1, "unit": "%"}, {"measurement": "% remaining", "setting": "Stability in rat plasma; 0 h", "result": 100, "unit": "%"}, {"measurement": "% remaining", "setting": "Stability in rat plasma; 1 h", "result": 103, "unit": "%"}, {"measurement": "% remaining", "setting": "Stability in rat plasma; 2 h", "result": 106, "unit": "%"}, {"measurement": "% remaining", "setting": "Stability in rat plasma; 4 h", "result": 138, "unit": "%"}, {"measurement": "% remaining", "setting": "Stability in rat plasma; 8 h", "result": 99.3, "unit": "%"}, {"measurement": "% remaining", "setting": "Stability in rat plasma; 21 h", "result": 96.5, "unit": "%"}, {"measurement": "% remaining", "setting": "Stability in rat plasma; 44 h", "result": 91.2, "unit": "%"}, {"measurement": "Clearance used to calculate human circulating concentrations", "setting": "[6]; human", "result": 3.4, "unit": "mL/h/kg"}, {"measurement": "Plasma half life used to calculate human circulating concentrations", "setting": "[6]; human", "result": 80, "unit": "h"}, {"measurement": "Clearance compared with anidulafungin", "setting": "[6]", "result": "lower clearance"}, {"measurement": "Half-life compared with anidulafungin", "setting": "[6]", "result": "longer half-life"}, {"measurement": "Plasma half-life (IV)", "setting": "[6]; iv", "result": 81, "unit": "h"}, {"measurement": "clearance", "setting": "[6]; iv", "result": 3.4, "unit": "mL/h/kg"}, {"measurement": "Half-life", "setting": "[7]", "result": 30, "unit": "h"}, {"measurement": "Half-life", "setting": "[8]", "result": 53, "unit": "h"}, {"measurement": "Half-life", "setting": "[9]", "result": 40, "unit": "h"}, {"measurement": "Half-life", "setting": "[10]", "result": 81, "unit": "h"}]}
